Measured values published in patent publication US8742113B2, “Furanone derivative” (SBI Biotech Co., Ltd., priority 2011, dated 2014).
Like-named read-outs stand apart in the source and are kept apart here.

Tests used:
[1] = molecular target: human Cdc7/human ASK complex protein (Homo sapiens (Human), UniProt O00311); assay: Inhibitory effect on Cdc7 protein kinase (MSA assay kit); format: biochemical
Experimental: [Inhibitory Effect on Cdc7 Protein Kinase]
Measurement of kinase activity was carried out using an MSA assay kit (QuickScout Screening Assist™ Kit, Carna Biosciences, Inc.).
Assay buffer (20 mM HEPES, 0.01% Triton X-100™, 2 mM dithiothreitol, pH 7.5) was used to prepare a substrate mixture solution comprising 4 μM of a kinase-reaction substrate (FITC-labeled MCM2 peptide), 40 mM MgCl2, and 20 μM ATP.
The enzyme supplied in the kit (human Cdc7/human ASK complex protein) was diluted in the assay buffer so as to be at 7 nM, thereby preparing an enzyme solution.
The stock solution of each test compound was diluted in DMSO to prepare diluted DMSO solutions of 10 concentrations (0.00003 mM, 0.0001 mM, 0.0003 mM, 0.001 mM, 0.003 mM, 0.01 mM, 0.03 mM, 0.1 mM, 0.3 mM, 1 mM), each of which was further diluted 25 times in the assay buffer to make a drug solution (a solution containing 4% DMSO).
The kinase reaction was performed in wells of a polypropylene 384-well plate in which 5 μl of each of the drug solutions or of a solvent (assay buffer containing 4% DMSO), 5 μl of the substrate mixture solution, and 10 μl of the enzyme solution were mixed. The assay buffer, instead of the enzyme solution, was added to blank wells. After the reaction at room temperature for 5 hours, 60 μl of the termination buffer supplied in the kit was added to each well to stop the reaction. The percent inhibition of each reaction was determined using a LabChip EZ Reader II system (manufactured by Caliper Life Sciences), according to the protocol provided with the assay kit. In this case, the peak heights of the separated substrate and the phosphorylated substrate were represented as S and P, respectively, and the percent inhibition (%) by a tested compound was calculated according to the following formula: Percent inhibition(%)=(1−(C−A)/(B−A))×100 wherein A denotes P/(P+S) for a blank well, B denotes P/(P+S) for a solvent well, and C denotes P/(P+S) for a compound-added well.
The IC50 value of a tested compound was calculated by regression analysis of the percent inhibition values versus the (logarithmic) concentrations of the tested compound.

[2] = system: MCM2 phosphorylation in COLO205 cells; assay: Inhibitory effect on MCM2 phosphorylation using cells (Western blot); format: cell-based; conditions: Homo sapiens, COLO 205, 0.1 μM test compound, 24 hours, class by percent phosphorylation of MCM2, read-out: Test Example 2 Inhibitory effect on MCM2 phosphorylation
Experimental: [Inhibitory Effect on Phosphorylation Using Cells]
COLO205 cells derived from human colon adenocarcinoma (RCB2127, RIKEN BRC) were cultured in 10 cm dishes using RPMI-1640 medium (SIGMA, R8758) supplemented with 10% FCS (Equitech-bio) and 5% penicillin/streptomycin (GIBCO, 15140). After the cells were cultured to a confluence of 70 to 90%, the medium was removed, and the cells were treated with trypsin (2 mL, TrypLE Express, GIBCO, 12604-021) and then harvested using a new medium.
COLO205 cells were seeded in 6-well plates (FALCON, 35046) to 2.5×10^5 cells (1 ml) per well and cultured overnight in a 5% CO2 incubator. A drug solution, which was prepared by adding 1.5 μl of a 0.1-mM stock solution in DMSO of a test compound to 500 μl of medium, was added to each well (to a final drug concentration of 0.1 μM), and then cultured for another 24 hours.
Cells were cultured for 24 hours in the presence of a test compound, harvested using a similar way as described above, washed with PBS, and then pelletized and stored at −80° C. The frozen cells were thawed, subsequently suspended immediately in 2×SDS-PAGE electrophoresis buffer (1×10^5 cells per 10 μl), and heated at 95° C. for 10 minutes, leading to the dissolution and denaturation of the proteins. The resulting sample solutions were subjected to SDS-PAGE using a 5-20% gradient acrylamide gel (e-PAGEL (5-20%), ATTO, E-T520L). After the electrophoresis was completed, the gel was immersed in tris-glycine buffer supplemented with 20% methanol, and the proteins in the gel were transferred onto a PVDF membrane (MILLIPORE, Immobilon-P, IPVH00010) using a semi-dry transfer apparatus (TRNS-BLOT SD SEMI-DRY […] CELL, BIO RAD).
The transferred PVDF membrane was blocked with 5% skim milk (Difco Skim Milk, BD, 232100), and then subjected to reaction with an anti-MCM2 goat antibody (N-19, Santa Cruz, sc-9839) or anti-phosphorylated MCM2 rabbit antibody (S53) (Bethyl, A300-756A) as a primary antibody and additionally with an anti-α tubulin mouse antibody (Clone DM 1A, SIGMA, 9026) as an internal control. Each band was detected by chemiluminescence using an HRP-labeled anti-goat IgG donkey antibody (Santa Cruz, sc2020), anti-rabbit IgG sheep antibody (Roche, 12015218001), or anti-mouse IgG donkey antibody (Jackson ImmunoResearch, 715-035-151) as a secondary antibody. The combinations of and the diluted concentrations of the primary and secondary antibodies were as indicated below.
The bands which were detected were normalized using the amount of endogenous α-tubulin as a reference, and the percent phosphorylation of MCM2 was calculated for each of the tested compounds. Their inhibitory effects on MCM2 phosphorylation were indicated by a triple asterisk (***) in the case where the percent phosphorylation of MCM2 was less than 20%, by a dual asterisk (**) in the case where the percent phosphorylation of MCM2 was not less than 20% and less than 50%, and by a single asterisk (*) in the case where the percent phosphorylation of MCM2 was not less than 50% and less than 70%.

[3] = human Cdc7/human ASK complex, FITC-labeled MCM2 peptide substrate, reaction 5 hours at room temperature, read-out: Test Example 1 Cdc7 IC50 value

Chain of human Cdc7/human ASK complex protein (O00311 whole entry): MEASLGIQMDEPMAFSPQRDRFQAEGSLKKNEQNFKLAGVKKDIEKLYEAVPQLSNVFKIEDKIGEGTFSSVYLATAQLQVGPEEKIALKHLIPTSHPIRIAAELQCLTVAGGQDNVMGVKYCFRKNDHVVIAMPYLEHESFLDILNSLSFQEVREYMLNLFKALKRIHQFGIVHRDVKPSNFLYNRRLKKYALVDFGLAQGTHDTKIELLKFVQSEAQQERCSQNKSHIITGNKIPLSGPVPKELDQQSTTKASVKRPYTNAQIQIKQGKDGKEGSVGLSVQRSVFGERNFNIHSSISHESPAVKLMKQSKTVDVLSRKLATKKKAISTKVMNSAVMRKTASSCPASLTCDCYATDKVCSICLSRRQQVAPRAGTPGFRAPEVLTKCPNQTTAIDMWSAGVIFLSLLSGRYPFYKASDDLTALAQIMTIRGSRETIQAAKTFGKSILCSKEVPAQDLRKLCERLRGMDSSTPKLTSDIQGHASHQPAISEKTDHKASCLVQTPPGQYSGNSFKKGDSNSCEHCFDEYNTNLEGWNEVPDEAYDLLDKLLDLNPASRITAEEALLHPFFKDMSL
Chain of human Cdc7/human ASK complex protein (Q9UBU7 whole entry partner): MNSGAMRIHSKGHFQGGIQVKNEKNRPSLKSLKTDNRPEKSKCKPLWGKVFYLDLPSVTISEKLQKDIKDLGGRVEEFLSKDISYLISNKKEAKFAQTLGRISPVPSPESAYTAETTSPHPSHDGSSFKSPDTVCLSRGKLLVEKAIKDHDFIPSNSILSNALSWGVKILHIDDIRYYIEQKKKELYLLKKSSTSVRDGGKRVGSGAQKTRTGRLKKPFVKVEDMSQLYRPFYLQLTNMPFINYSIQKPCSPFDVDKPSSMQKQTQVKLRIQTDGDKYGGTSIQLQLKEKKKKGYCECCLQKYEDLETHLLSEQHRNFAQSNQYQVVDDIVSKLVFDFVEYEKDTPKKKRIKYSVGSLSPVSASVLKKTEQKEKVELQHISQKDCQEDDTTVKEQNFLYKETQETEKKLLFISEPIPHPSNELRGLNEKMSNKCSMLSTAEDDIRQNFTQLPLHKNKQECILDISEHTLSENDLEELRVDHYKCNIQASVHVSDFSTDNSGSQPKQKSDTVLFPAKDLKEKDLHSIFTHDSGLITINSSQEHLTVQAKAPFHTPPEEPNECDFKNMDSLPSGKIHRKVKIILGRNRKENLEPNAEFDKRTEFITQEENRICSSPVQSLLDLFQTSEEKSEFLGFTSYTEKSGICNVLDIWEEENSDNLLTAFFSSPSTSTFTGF

| Compound | IC50 [1, 3] [nM] | inhibition at 0.1 µM [2] [%] | IC50 [1] [nM] |
| --- | --- | --- | --- |
| CCOC(=O)C1=C(Nc2ccc3cn[nH]c3c2)O/C(=C\c2c[nH]c3ncccc23)C1=O [Example 68, Ethyl 5-[(1H-pyrrolo[2,3-b]pyridin-3-yl)methylene]-2-[(6-indazolyl)amino]-4-oxo-4,5-dihydrofuran-3-carboxylate] | 4 | < 20 |  |
| CCOC(=O)C1=C(NN2CCOCC2)O/C(=C\c2c[nH]c3ncccc23)C1=O [Example 142, Ethyl 5-[(1H-pyrrolo[2,3-b]pyridin-3-yl)methylene]-2-(morpholinoamino)-4-oxo-4,5-dihydrofuran-3-carboxylate] | 3 | 20 to 50 |  |
| O=C1C=C(Nc2ccc3[nH]ncc3c2)O/C1=C\c1c[nH]c2ncccc12 [Example 239, 2-[(1H-Pyrrolo[2,3-b]pyridin-3-yl)methylene]-5-[(5-indazolyl)amino]furan-3(2H)-one] |  | 20 to 50 | 1 |
| CCOC(=O)C1=C(N2CCc3ccc(OC)cc3C2)O/C(=C\c2c[nH]c3ncccc23)C1=O [Example 244, Ethyl 5-[(1H-pyrrolo[2,3-b]pyridin-3-yl)methylene]-2-(7-methoxy-3,4-dihydroisoquinolin-2(1H)-yl)-4-oxo-4,5-dihydrofuran-3-carboxylate] | 4 | < 20 |  |
| CCOC(=O)C1=C(N2CCc3ccccc3C2)O/C(=C\c2c[nH]c3ncccc23)C1=O [Example 102, Ethyl 5-[(1H-pyrrolo[2,3-b]pyridin-3-yl)methylene]-2-(3,4-dihydroisoquinolin-2(1H)-yl)-4-oxo-4,5-dihydrofuran-3-carboxylate] | 4 | < 20 |  |
| O=C(OCCCO)C1=C(Nc2ccc(F)cc2)O/C(=C\c2c[nH]c3ncccc23)C1=O [Example 89, 3-Hydroxypropyl 5-[(1H-pyrrolo[2,3-b]pyridin-3-yl)methylene]-2-[(4-fluorophenyl)amino]-4-oxo-4,5-dihydrofuran-3-carboxylate] | 3 | < 20 |  |
| CCOC(=O)C1=C(Nc2ccc(OCCO)cc2F)OC(=Cc2c[nH]c3ncccc23)C1=O [Example 81, Ethyl 5-[(1H-pyrrolo[2,3-b]pyridin-3-yl)methylene]-2-{[2-fluoro-4-(2-hydroxyethoxy)phenyl]amino}-4-oxo-4,5-dihydrofuran-3-carboxylate] | 5 | < 20 |  |
| CN(C)CCOC(=O)C1=C(Nc2ccc(F)cc2F)O/C(=C\c2c[nH]c3ncccc23)C1=O [Example 91, 2-(Dimethylamino)ethyl 5-[(1H-pyrrolo[2,3-b]pyridin-3-yl)methylene]-2-[(2,4-difluorophenyl)amino]-4-oxo-4,5-dihydrofuran-3-carboxylate] | 4 | < 20 |  |
| CCOC(=O)C1=C(N2CCCCCC2)O/C(=C\c2c[nH]c3ncccc23)C1=O [Example 63] |  | < 20 |  |
| CCOC(=O)C1=C(Nc2ccccc2Cl)O/C(=C\c2c[nH]c3ncccc23)C1=O [Example 15, Ethyl 5-[(1H-pyrrolo[2,3-b]pyridin-3-yl)methylene]-2-[(2-chlorophenyl)amino]-4-oxo-4,5-dihydrofuran-3-carboxylate] | 2 | 20 to 50 |  |
| Cc1cc(OCCO)ccc1NC1=C(C(=O)OC(C)C)C(=O)/C(=C/c2c[nH]c3ncccc23)O1 [Example 157, Isopropyl 5-[(1H-pyrrolo[2,3-b]pyridin-3-yl)methylene]-2-{[4-(2-hydroxyethoxy)-2-methylphenyl]amino}-4-oxo-4,5-dihydrofuran-3-carboxylate] | 3 | 20 to 50 |  |
| CCOC(=O)C1=C(N2CCC(C)CC2)O/C(=C\c2c[nH]c3ncccc23)C1=O [Example 78, Ethyl 5-[(1H-pyrrolo[2,3-b]pyridin-3-yl)methylene]-2-(4-methylpiperidino)-4-oxo-4,5-dihydrofuran-3-carboxylate] | 11 | < 20 |  |
| Cc1ccsc1CNC1=CC(=O)/C(=C/c2c[nH]c3ncccc23)O1 [Example 242, 2-[(1H-Pyrrolo[2,3-b]pyridin-3-yl)methylene]-5-{[(3-methyl-2-thienyl)methyl]amino}furan-3(2H)-one] |  | < 20 | 1 |
| O=C1C=C(NC2CCCCCC2)O/C1=C\c1c[nH]c2ncccc12 [Example 226, 2-[(1H-Pyrrolo[2,3-b]pyridin-3-yl)methylene]-5-(cycloheptylamino)furan-3(2H)-one] | 4 | < 20 |  |
| O=C(O)C1=C(Nc2ccccc2)O/C(=C\c2c[nH]c3ncccc23)C1=O [Example 22, 5-[(1H-Pyrrolo[2,3-b]pyridin-3-yl)methylene]-4-oxo-2-(phenylamino)-4,5-dihydrofuran-3-carboxylic acid] |  | 50 to 70 |  |
| CCOC(=O)C1=C(NN2CCN(CC(F)(F)F)CC2)O/C(=C\c2c[nH]c3ncccc23)C1=O [Example 246, Ethyl 5-[(1H-pyrrolo[2,3-b]pyridin-3-yl)methylene]-4-oxo-2-{[4-(2,2,2-trifluoroethyl)piperazinyl]amino}-4,5-dihydrofuran-3-carboxylate] | 8 | < 20 |  |
| CCOC(=O)C1=C(Nc2ccc(CN(C)C)cc2C)O/C(=C\c2c[nH]c3ncccc23)C1=O [Example 129, Ethyl 5-[(1H-pyrrolo[2,3-b]pyridin-3-yl)methylene]-2-({4-[(dimethylamino)methyl]-2-methylphenyl}amino)-4-oxo-4,5-dihydrofuran-3-carboxylate] | 9 | < 20 |  |
| Cc1cc(F)ccc1NC1=CC(=O)/C(=C/c2c[nH]c3ncccc23)O1 [Example 233, 2-[(1H-Pyrrolo[2,3-b]pyridin-3-yl)methylene]-5-[(4-fluoro-2-methylphenyl)amino]furan-3(2H)-one] | 2 | 20 to 50 |  |
| CCOC(=O)C1=C(Nc2ccc(NCCO)cc2C)O/C(=C\c2c[nH]c3ncccc23)C1=O [Example 126, Ethyl 5-[(1H-pyrrolo[2,3-b]pyridin-3-yl)methylene]-2-({4-[(2-hydroxyethyl)amino]-2-methylphenyl}amino)-4-oxo-4,5-dihydrofuran-3-carboxylate] | 3 | < 20 |  |
